# ChEMBL document CHEMBL3217731 (Medchemcomm, 2012)
# Experiments:
# Parameters in all cases: dose 2.5 mg/kg, route intraperitoneal
# Serum [1] = experiment: Half life in C57BL/6J mouse serum at 2.5 mg/kg, ip; type: ADME, organism-based; details: in vivo
# Serum [2] = experiment: Drug uptake in C57BL/6J mouse serum at 2.5 mg/kg, ip measured at 10 to 60 mins by CE-UV analysis; type: ADME, organism-based; details: in vivo
# [3] = AUC in C57BL/6J mouse CSF at 2.5 mg/kg, ip by CE-UV analysis; type: ADME, organism-based
# [4] = Drug uptake in C57BL/6J mouse eye at 2.5 mg/kg, ip measured at 10 hrs by CE-UV analysis; type: ADME, organism-based; details: in vivo
# Serum [5] = experiment: AUC in C57BL/6J mouse serum at 2.5 mg/kg, ip by CE-UV analysis; type: ADME, organism-based, Plasma; details: in vivo
# [6] = Drug uptake in C57BL/6J mouse CSF at 2.5 mg/kg, ip measured at 4 to 10 hrs by CE-UV analysis; type: ADME, organism-based, Cerebrospinal fluid; details: in vivo
# Brain = experiment: Drug uptake in C57BL/6J mouse brain at 2.5 mg/kg, ip measured at 4 hrs by CE-UV analysis; type: ADME, organism-based; details: in vivo
compound,measurement,setting,value
CN1C(=O)N[C@H]2[C@@H]3NC(=O)c4ccc(Br)n4[C@@H]3C[C@]21O [AGELASTATIN A],t1/2,Serum [1],12 h
same,Drug uptake,Serum [2],Active
same,AUC,[3],3.41 µM·h
same,Drug uptake,[4],Active
same,AUC,Serum [5],33.8 µM·h
same,Drug uptake,[6],Active
same,Drug uptake,Brain,Active
